Assay results taken from patent US12329158B2, “Large-scale methods of uniformly coating packaging surfaces with a volatile antimicrobial to preserve food freshness” (AGROFRESH INC., priority 2013, dated 2025).
In brackets after ≈: the same amount, converted by molar mass.

Legend:
Botrytis cinerea [1] = experiment: Volatile release from materials treated by sublimation (Example 14); assay type: cell-based
Description: An in vitro assay is used to evaluate the ability of compound A to volatilize from different materials and control fungal growth. Cardboard box (Category 1), PET plastic (Polyethylene terepthalate—PET) and Polyethylene are used. The materials are cut into equal dimensions (10×19 cm^2) and placed inside a 36-L acrylic desiccator cabinet (Fisher Scientific, cat no. 08-642-23C) in duplicate.
The acetone is allowed to evaporate for 1 minute at 60° C. Compound A is then introduced as a gas into the cabinets by a sublimation device (copper tube heated to 180° C. with fan flow at 0.5 L/min) to achieve a final headspace concentration of 0.3, 0.06 and 0.012 mg/L). The chambers are then incubated at 23° C. for 24 hours, then treated materials are carefully removed and placed inside a clean 10.8 cup SnapWare airtight container (Model #109842) containing a 10-cm diameter Petri dish with PDA and inoculated with 1 μL of […] of B. cinerea. The containers are then tightly sealed for 3 days at 23° C. After 3 days of storage, cultures are evaluated for percent growth relative to control.

Trichophyton rubrum = experiment: In vitro volatile assay (Example 26); assay type: cell-based; details: Trichophyton rubrum, 120 h, 5 days at 28 C, 100% control, read-out: MIC (mg/L) Trichophyton rubrum
Description: (§1) Volatile assay: 6-well (16.5 mL volume per well) microtiter plates are used in an in vitro inhibition assay for Compounds A and 31, and compared to other registered fungicides (5-fluorocytosine, Amphotericin B, aspofungin diacetate, Fluconazole and Itraconazole). A 7.5-mL volume of half strength PDA is added to each well. After drying, a mycelial plug (5 mm diameter) is aseptically obtained from actively growing cultures of Epidermophyton floccus, Trichophyton rubrum, or Trichophyton mentagrophytes and placed at the center of the plate with the mycelial side in contact with the agar. A Whatman #1 filter disk (Cat. No. 1001-325) is placed, in duplicate, on the underside of a polyethylene PCR plate sealing film. […] The headspace around the inoculum is then sealed inside the well by the film with the adhering disk containing the fungicide and incubated inverted for 5 days at 28° C.

Epidermophyton floccus = experiment: In vitro volatile assay (Example 26); assay type: cell-based; details: Epidermophyton, 120 h, 5 days at 28 C, 100% control, read-out: MIC (mg/L) Epidermophyton floccus
Description: as §1

[2] = test system: Trichophyton mentagrophytes; experiment: In vitro volatile assay (Example 26); assay type: cell-based; details: Trichophyton mentagrophytes, 120 h, 5 days at 28 C, 100% control, read-out: MIC (mg/L) Trichophyton mentagrophytes
Description: as §1

Botrytis cinerea [3] = experiment: Gray mold on strawberry, contact assay (Example 23); assay type: in vivo
Description: Eight strawberries (per repetition, in triplicate) are placed in an industry standard 1-lb PET clamshell with the stem-end facing down.
Contact Assay: Compound A is dissolved in 85% methanol to achieve a final concentration of 250, 50, 10, or 2 mg/L. A 250 mL solution of each concentration is used to dip eight inoculated strawberry fruit for one-minute, performed in triplicate per rate. The dipped fruits are then placed back into the clamshells, which are then placed in a secondary container and incubated at 1° C. for 5 days. After incubation, fruits are evaluated for disease severity (scale 0 to 4, with ≤1 indicating marketable fruit and 4 indicating ≥50% of fruit surface covered by pathogen) up to 4 days at 21° C.

Botrytis cinerea [4] = experiment: Volatile release from different materials, MIC (Example 13); assay type: cell-based
Description: An in vitro assay is used to evaluate the ability of Compound A to volatilize from different materials and control fungal growth. […] A 3-mL volume of full-strength Potato Dextrose Agar (PDA) is added to each well. […] Plates are inoculated immediately prior to volatile fungicide treatment. The various materials are placed, in duplicate, on the underside of a polyethylene PCR plate sealing film. […] The acetone is permitted to evaporate for five minutes. The headspace around the Botrytis cinerea inoculum is then sealed inside the well by the film with the adhering disk of material containing the fungicide. Plates are inverted, placed over the treated disks and sealed to prevent any of the chemical from flaking from the disk and falling onto the inoculated agar. After three days of storage at 23° C., the cultures are evaluated for percent growth relative to control based on measurement of fungal colony diameter.

[5] = Solubility in methanol (remark in Example 25); assay type: physicochemical; details: room temperature

What does the source list for OB1OCc2cc(F)ccc21 [Compound A, 5-fluoro-1,3-dihydro-1-hydroxy-2,1-benzoxaborole]?
Incidence (%) (Botrytis cinerea [1]; Rate 0.012 mg/L, Cardboard): 100.0%; Incidence (%) (Botrytis cinerea [1]; Rate 0.012 mg/L, Clamshell): 100.0%; Incidence (%) (Botrytis cinerea [1]; Rate 0.012 mg/L, Polyethylene): 99.0%; Incidence (%) (Botrytis cinerea [1]; Rate 0.06 mg/L, Cardboard): 91.7%; Incidence (%) (Botrytis cinerea [1]; Rate 0.06 mg/L, Clamshell): 100.0%; Incidence (%) (Botrytis cinerea [1]; Rate 0.06 mg/L, Polyethylene): 86.7%; Incidence (%) (Botrytis cinerea [1]; Rate 0.3 mg/L, Cardboard): 9.3%; Incidence (%) (Botrytis cinerea [1]; Rate 0.3 mg/L, Clamshell): 4.1%; Incidence (%) (Botrytis cinerea [1]; Rate 0.3 mg/L, Polyethylene): 4.9%; MIC (Trichophyton rubrum): 2 mg/L (≈ 13.2 µM); MIC (Epidermophyton floccus): 2 mg/L (≈ 13.2 µM); MIC [2]: 2 mg/L (≈ 13.2 µM); Disease Severity (0 to 4) (Botrytis cinerea [3]; 2 mg/L, Day 0): 0.0; Disease Severity (0 to 4) (Botrytis cinerea [3]; 2 mg/L, Day 1): 0.0; Disease Severity (0 to 4) (Botrytis cinerea [3]; 2 mg/L, Day 2): 0.6; Disease Severity (0 to 4) (Botrytis cinerea [3]; 2 mg/L, Day 3): 1.1; Disease Severity (0 to 4) (Botrytis cinerea [3]; 2 mg/L, Day 4): 1.9; Disease Severity (0 to 4) (Botrytis cinerea [3]; 10 mg/L, Day 0): 0.0; Disease Severity (0 to 4) (Botrytis cinerea [3]; 10 mg/L, Day 1): 0.0; Disease Severity (0 to 4) (Botrytis cinerea [3]; 10 mg/L, Day 2): 0.0; Disease Severity (0 to 4) (Botrytis cinerea [3]; 10 mg/L, Day 3): 0.3; Disease Severity (0 to 4) (Botrytis cinerea [3]; 10 mg/L, Day 4): 1.0; Disease Severity (0 to 4) (Botrytis cinerea [3]; 50 mg/L, Day 0): 0.0; Disease Severity (0 to 4) (Botrytis cinerea [3]; 50 mg/L, Day 1): 0.0; Disease Severity (0 to 4) (Botrytis cinerea [3]; 50 mg/L, Day 2): 0.0; Disease Severity (0 to 4) (Botrytis cinerea [3]; 50 mg/L, Day 3): 0.0; Disease Severity (0 to 4) (Botrytis cinerea [3]; 50 mg/L, Day 4): 0.0; Disease Severity (0 to 4) (Botrytis cinerea [3]; 250 mg/L, Day 0): 0.0; Disease Severity (0 to 4) (Botrytis cinerea [3]; 250 mg/L, Day 1): 0.0; Disease Severity (0 to 4) (Botrytis cinerea [3]; 250 mg/L, Day 2): 0.0; Disease Severity (0 to 4) (Botrytis cinerea [3]; 250 mg/L, Day 3): 0.0; Disease Severity (0 to 4) (Botrytis cinerea [3]; 250 mg/L, Day 4): 0.0; MIC (Botrytis cinerea [4]; volatile release from Acrylic-Coated Fiberglass): 0.56 µg/mL (≈ 3.69 µM); MIC (Botrytis cinerea [4]; volatile release from Aramid): 2.2 µg/mL (≈ 14.5 µM); MIC (Botrytis cinerea [4]; volatile release from Aramid and Fiberglass): 0.56 µg/mL (≈ 3.69 µM); MIC (Botrytis cinerea [4]; volatile release from Cardboard): 2.2 µg/mL (≈ 14.5 µM); MIC (Botrytis cinerea [4]; volatile release from Cellulose): 0.56 µg/mL (≈ 3.69 µM); MIC (Botrytis cinerea [4]; volatile release from Fiberglass): 0.56 µg/mL (≈ 3.69 µM); MIC (Botrytis cinerea [4]; volatile release from PTFE): 1.1 µg/mL (≈ 7.24 µM); MIC (Botrytis cinerea [4]; volatile release from PTFE-Coated Fiberglass): 0.56 µg/mL (≈ 3.69 µM); MIC (Botrytis cinerea [4]; volatile release from Polyethylene PCR Film): 0.28 µg/mL (≈ 1.84 µM); MIC (Botrytis cinerea [4]; volatile release from Silica): 0.56 µg/mL (≈ 3.69 µM); MIC (Botrytis cinerea [4]; volatile release from Silicone-Coated Fiberglass): 0.56 µg/mL (≈ 3.69 µM); MIC (Botrytis cinerea [4]; volatile release from Vinyl-Coated Polyester): 0.56 µg/mL (≈ 3.69 µM); Solubility in methanol (in words) [5]: not soluble in methanol at room temperature
